Source: patent US20230272077A1, “PD-1 SIGNAL INHIBITOR COMBINATION THERAPY” (KYOTO UNIVERSITY, priority 2015, published 2023)
“Also recorded” adds a separate entry of the source.

How the values were obtained:
MC38 = assay: Mouse therapy model, MC38-bearing mice (tumor volume, survival); assay type: in vivo
Experimental: MC38 (5×10^5) and MethA (5×10^5) cells were intradermally injected on the right flank. MC38 was inoculated into C57BL/6 mice and MethA was inoculated into BALB/c mice. For monotherapy, mice were intraperitoneally injected with 150 μg of PD-L1 mouse antibody (1-111A) (prepared by the laboratory of the present inventors) 5 days after the tumor inoculation. Therapy with PD-L1 antibody alone was repeated three times every 5 days. For combination therapy, administration of PD-L1 antibody and chemical agents started 7 days after tumor injection. Chemical agents were injected at a regular interval of 2 days and PD-L1 antibody at a regular interval of 5 days (shown in FIG. 3b). Tumors were measured on every alternate day, and tumor volumes were calculated using the formula for typical ellipsoid, π×(length×breadth×height/6).
The following chemical reagents were used at the indicated concentrations for combination therapy. AMPK activator: A769662, 6 mg/kg (Abcam); mTOR activator: MHY1485, 3 μg/kg (Sigma-Aldrich); uncoupler: carbonylcyanide-p-trifluoromethoxyphenylhydrazone (FCCP), 1.2 mg/kg (Abcam); uncoupler: 2,4-Dinitrophenol (DNP), 1.7 mg/kg (Aldrich); SIRT1 activator: resveratrol, 0.5 mg/kg (Abcam); ROS scavenger: Mn (III) tetrakis (4-benzoic acid) porphyrin (MnTBAP), 1.25 mg/kg (Calbiochem); ROS generator: tert-butyl hydroperoxide solution (Luperox TBH70X), 200 μL/kg (Sigma-Aldrich); ATP synthase inhibitor: oligomycin, 250 μg/kg (Sigma-Aldrich); paraquat 2 mg/kg (Nakalai Tesque); oltipraz 1.9 mg/kg (Sigma); bezafibrate 1 mg/kg (ChemCruz).
All reagents were freshly prepared just before use. Each reagent was dissolved in the solvent indicated in the instructions. Note that the AMPK activator, mTOR activator, uncouplers and SIRT1 activator were prepared from fresh unused vials in each series of experiments. Dissolved reagents were diluted in PBS, and a 200 l aliquot was injected per mouse.
Murine colon adenocarcinoma MC38 cells (5×10^5) were inoculated into C57BL/6 mice. After 7 days, anti-PD-L1 antibody (1-111A, 150 μg) and AMPK inhibitor (Compound C: 200 μg in BBS, 200 μL) were administered intraperitoneally. Anti-PD-L1 antibody was administered 3 times at a regular interval of 6 days; Compound C (C.C) was administered 7 times at a regular interval 2 days.
MC38 cells (5×10^5) were inoculated into C57BL/6 mice. After 7 days, anti-PD-L1 antibody (1-111A, 150 μg) and PGC-1α/transcription factor complex activator (2-(4-{2-[(4-chlorobenzoyl)amino]ethyl}phenoxy)-2-methylpropanoic acid (bezafibrate): 10 ug in PBS, 200 ul) were administered intraperitoneally. Anti-PD-L1 antibody was administered 3 times at a regular interval of 6 days; bezafibrate was administered 7 times at a regular interval 2 days.

PGC-1α = PGC-1α expression (Western blotting, real-time RT-PCR); assay type: in vivo, mouse; conditions: combination therapy together with PD-L1 antibody
Experimental: RNA was isolated from CD8^+ T cells or tumor cells with the RNeasy Mini Kit (Qiagen), followed by cDNA synthesis by reverse transcription. Real-time PCR for PGC-1α was performed using the following primers: Forward […] (SEQ ID NO: 1) and Reverse […] (SEQ ID NO: 2). To analyze the expression levels of genes associated with apoptosis and mitochondrial energy metabolism, RT2 Profiler PCR Array Gene Expression Kit PAMM-012Z or PAMM-008Z (Qiagen) was used. The list of genes included in this assay can be found in www.sabiosciences.com/Apoptosis.php.
CD8^+ T cells were isolated using mouse CD8 Microbeads (Miltenyi Biotec). After washing with PBS twice, 2×10^6 cells were solubilized in a lysis buffer containing 30 mM Tris-HCl (pH.7.4), 150 mM NaCl, 10% glycerol, 0.1% SDS, 1% Triton-X-100, 0.05% Na-Doc, 5 mM EDTA (pH.8.0), protease inhibitor mixture (Roche Molecular Biochemicals) and phosphatase inhibitors (Nacalai Tesque). After measurement of protein concentrations by DC protein assay (Bio-Rad), 4 μg of proteins was mounted on 4 to 20% gradient Mini-PROTEAN TGX Gels (Bio-Rad) and electroblotted onto nitrocellulose membranes, which were then incubated in a blocking buffer of TBS containing 1% BSA. Primary antibody incubations were carried out overnight at 4° C. in blocking buffer. After washing, secondary antibody incubations were carried out at room temperature for 40 min in blocking buffer. Blots were developed with enhanced chemiluminescence (Amersham Pharmacia). Primary antibodies recognizing the following proteins were used: Phospho-mTOR (P-mTOR) (Cat #5536), Phospho-AMPKa (P-AMPK) (#2535), Phospho-p70 S6 Kinase (P-S6K) (#9205), 4E-BP1 (#9644), Phospho-Acetyl-CoA Carboxylase (P-ACC) (#3661) and SIRT1 (#9475). All the primary antibodies were obtained from Cell Signaling Technology. An antibody recognizing PGC-1α (SC-13067) was obtained from Santa Cruz.

In the case of N#CC(C#N)=NNc1ccc(OC(F)(F)F)cc1 [FCCP, carbonyl cyanide p-trifluoromethoxyphenylhydrazone], the “antitumor effect when administered alone” value (MC38; MC38-bearing mice, reagent alone, no PD-L1 antibody, tumor volume) is reported as “failed to exhibit any antitumor effect”, the “enhancement of antitumor effect of PD-L1 antibody (tumor volume)” value (MC38; MC38-bearing mice, reagent combined with PD-L1 antibody vs PD-L1 antibody alone) is reported as “augmented the efficacy of PD-L1 antibody therapy; also recorded: enhance the antitumor effect of PD-L1 antibody” and the survival rate (MC38; mouse, in vivo) is reported as “remarkably improved the survival rate”. For the same compound, the “expression levels of PGC-1α protein and mRNA” value (PGC-1α) was “increased”.
